US20060154243A1 (priority 2003, published 2006)

Columns and labels:
[1] = test system: rabbit serum obtained by immunizing with SARS-CoV strain Frankfurt 1; assay type: binding
[2] = test system: control serum Blood-bank (commercial negative donor pooled serum); assay type: binding, human
[3] = test system: control serum LUMC (pooled serum of ten healthy hospital workers); assay type: binding, human

| Sequence | Rabbit serum linear peptides [1] | Rabbit serum looped peptides [1] | Control Serum Blood-Bank Looped peptides [2] | Control serum Blood-bank linear peptides [2] | Control serum LUMC linear peptides [3] | Control serum LUMC looped peptides [3] |
| --- | --- | --- | --- | --- | --- | --- |
| LEARAFQSTPIVVQM | 0.1 | 0.5 | – | – | – | – |
| DPQIQLTITRMEDAM | 0.1 | 0.3 | – | – | – | – |
| DSLEARAFQSTPIVV | 0.1 | 0.5 | – | – | – | – |
| GQNSADPKVYPIILR | 0.1 | 0.6 | – | – | – | – |
| QLTITRMEDAMGQGQ | 0.1 | 0.4 | – | – | – | – |
| FQSTPIVVQMTKLAT | 0.1 | 0.6 | – | – | – | – |
| LDSLEARAFQSTPIV | 0.1 | 0.5 | – | – | – | – |
| DAMGQGQNSADPKVY | 0.3 | 0.4 | – | – | – | – |
| KVYPIILRLGSQLSL | 1.8 | 0.5 | – | – | – | – |
| DPKVYPIILRLGSQL | 0.1 | 0.4 | – | – | – | – |
| VYPIILRLGSQLSLS | 0.6 | 1.0 | – | – | – | – |
| RLGSQLSLSMARRNL | 0.1 | 2.5 | – | – | – | – |
| RNLDSLEARAFQSTP | 0.3 | 0.5 | – | – | – | – |
| ISLCSCICTVVQRCA | 0.1 | 0.5 | – | – | – | – |
| LVDPQIQLTITRMED | 0.1 | 0.2 | – | – | – | – |
| PQIQLTITRMEDAMG | 0.0 | 0.2 | – | – | – | – |
| FYLCFLAFLLFLVLI | 0.3 | 0.6 | 0.7 | 0.8 | 0.4 | 0.6 |
| RAFQSTPIVVQMTKL | 0.1 | 0.7 | – | – | – | – |
| IILRLGSQLSLSMAR | 0.6 | 0.5 | – | – | – | – |
| HLVDPQIQLTITRME | 0.1 | 0.3 | – | – | – | – |
| VDPQIQLTITRMEDA | 0.0 | 0.4 | – | – | – | – |
| SLCSCICTVVQRCAS | 0.1 | 0.2 | – | – | – | – |

| Sequence | Rabbit serum linear peptides [1] | Rabbit serum looped peptides [1] | Control Serum Blood-Bank Looped peptides [2] | Control serum Blood-bank linear peptides [2] | Control serum LUMC linear peptides [3] | Control serum LUMC looped peptides [3] |
| --- | --- | --- | --- | --- | --- | --- |
| VLIMLIIFWFSLEIQ | 0.4 | 0.2 | 0.7 | 0.8 | 0.7 | 0.4 |
| EDAMGQGQNSADPKV | 0.6 | 0.5 | – | – | – | – |
| CISLCSCICTVVQRC | 0.0 | 0.5 | – | – | – | – |
| PKVYPIILRLGSQLS | 0.1 | 0.4 | – | – | – | – |
| PIVVQMTKLATTEEL | 0.1 | 0.6 | – | – | – | – |
| RRNLDSLEARAFQST | 0.3 | 0.5 | – | – | – | – |
| SQLSLSMARRNLDSL | 0.1 | 0.4 | – | – | – | – |
| ADPKVYPIILRLGSQ | 0.4 | 0.3 | – | – | – | – |
| LTLIDFYLCFLAFLL | 0.3 | 0.5 | 0.5 | 0.9 | 0.8 | 0.7 |
| GSQLSLSMARRNLDS | 0.1 | 0.7 | – | – | – | – |
| IVLTCISLCSCICTV | 0.1 | 0.6 | – | – | – | – |
| ARAFQSTPIVVQMTK | 0.2 | 0.7 | – | – | – | – |
| AFLLFLVLIMLIIFW | 0.5 | 1.0 | 0.8 | 0.8 | 0.4 | 0.4 |
| QLSLSMARRNLDSLE | 0.1 | 0.3 | – | – | – | – |
| CFLAFLLFLVLIMLI | 0.0 | 0.6 | 0.8 | 0.6 | 0.3 | 0.4 |
| SMARRNLDSLEARAF | 0.1 | 0.4 | – | – | – | – |
| SADPKVYPIILRLGS | 0.1 | 0.4 | – | – | – | – |
| LCFLAFLLFLVLIML | 0.2 | 0.3 | 0.7 | 0.7 | 0.4 | 0.4 |
| MKLLIVLTCISLCSC | 0.1 | 0.5 | – | – | – | – |
| QGQNSADPKVYPIIL | 0.1 | 0.5 | – | – | – | – |
| KLLIVLTCISLCSCI | 0.0 | 0.5 | – | – | – | – |
| CASNKPHVLEDPCKV | 0.5 | 0.8 | – | – | – | – |

| Sequence | Rabbit serum linear peptides [1] | Rabbit serum looped peptides [1] | Control Serum Blood-Bank Looped peptides [2] | Control serum Blood-bank linear peptides [2] | Control serum LUMC linear peptides [3] | Control serum LUMC looped peptides [3] |
| --- | --- | --- | --- | --- | --- | --- |
| TLIDFYLCFLAFLLF | 0.4 | 0.4 | 0.4 | 0.7 | 0.8 | 0.8 |
| LSLSMARRNLDSLEA | 0.1 | 0.3 | – | – | – | – |
| IQLTITRMEDAMGQG | 0.0 | 0.2 | – | – | – | – |
| TCISLCSCICTVVQR | 0.0 | 0.5 | – | – | – | – |
| TPIVVQMTKLATTEE | 0.1 | 0.4 | – | – | – | – |
| FLAFLLFLVLIMLII | 0.3 | 0.7 | 0.7 | 0.7 | 0.5 | 0.4 |
| MDPNQTNVVPPALHL | 1.1 | 0.1 | – | – | – | – |
| LGSQLSLSMARRNLD | 0.1 | 0.3 | – | – | – | – |
| QSTPIVVQMTKLATT | 0.0 | 0.6 | – | – | – | – |
| NSADPKVYPIILRLG | 0.1 | 0.4 | – | – | – | – |
| LIDFYLCFLAFLLFL | 0.3 | 0.3 | 0.5 | 0.7 | 0.4 | 0.7 |
| LFLVLIMLIIFWFSL | 0.4 | 0.5 | 0.8 | 0.8 | 0.4 | 0.4 |
| STPIVVQMTKLATTE | 0.1 | 0.5 | – | – | – | – |
| LTCISLCSCICTVVQ | 0.1 | 0.2 | – | – | – | – |
| LCSCICTVVQRCASN | 0.1 | 1.1 | – | – | – | – |
| ASNKPHVLEDPCKVQ | 0.8 | 0.9 | – | – | – | – |
| EARAFQSTPIVVQMT | 0.1 | 0.4 | – | – | – | – |
| QNSADPKVYPIILRL | 0.1 | 0.1 | – | – | – | – |
| ALHLVDPQIQLTITR | 0.5 | 0.5 | – | – | – | – |
| IVVQMTKLATTEELP | 0.2 | 0.4 | – | – | – | – |
| LIVLTCISLCSCICT | 0.1 | 0.5 | – | – | – | – |
| PIILRLGSQLSLSMA | 0.1 | 0.5 | – | – | – | – |

| Sequence | Rabbit serum linear peptides [1] | Rabbit serum looped peptides [1] | Control Serum Blood-Bank Looped peptides [2] | Control serum Blood-bank linear peptides [2] | Control serum LUMC linear peptides [3] | Control serum LUMC looped peptides [3] |
| --- | --- | --- | --- | --- | --- | --- |
| VLTCISLCSCICTVV | 0.0 | 0.4 | – | – | – | – |
| QIQLTITRMEDAMGQ | 0.1 | 0.2 | – | – | – | – |
| TTEELPDEFVVVTAK | 0.0 | 0.5 | – | – | – | – |
| SLEARAFQSTPIVVQ | 0.1 | 0.6 | – | – | – | – |
| LRLGSQLSLSMARRN | 0.1 | 0.5 | – | – | – | – |
| YPIILRLGSQLSLSM | 0.2 | 0.4 | – | – | – | – |
| GQGQNSADPKVYPII | 0.4 | 0.5 | – | – | – | – |
| MGQGQNSADPKVYPI | 0.1 | 0.6 | – | – | – | – |
| AMGQGQNSADPKVYP | 0.1 | 0.6 | – | – | – | – |
| LHLVDPQIQLTITRM | 0.5 | 0.6 | – | – | – | – |
| MARRNLDSLEARAFQ | 0.1 | 0.5 | – | – | – | – |
| AFQSTPIVVQMTKLA | 0.1 | 0.5 | – | – | – | – |
| LLIVLTCISLCSCIC | 0.1 | 0.5 | – | – | – | – |
| ARRNLDSLEARAFQS | 0.1 | 0.5 | – | – | – | – |
| LSMARRNLDSLEARA | 0.0 | 0.4 | – | – | – | – |
| SNKPHVLEDPCKVQH | 0.8 | 0.4 | – | – | – | – |
| NLDSLEARAFQSTPI | 0.2 | 0.4 | – | – | – | – |
| ILRLGSQLSLSMARR | 0.1 | 0.7 | – | – | – | – |
| SLSMARRNLDSLEAR | 0.1 | 0.4 | – | – | – | – |
